Data published in patent US20240368173A1, “TRICYCLIC GPR65 MODULATORS” (PATHIOS THERAPEUTICS LIMITED, priority 2021, published 2024).
Read-outs that look alike come from different tables or passages of the source.

Molecular target: human recombinant GPR65 (Homo sapiens, UniProt Q8IYL9)
Assay: Human GPR65 cAMP HTRF antagonist assay
Type: cell-based
Outline: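 Antagonism measured as suppression of the cAMP rise when pH is dropped to 7.2 (control wells pH 7.9) in 1321N1 cells stably carrying human GPR65. Cells in KRH with 1 mM IBMX and 200 μM EDTA saw compound 30 min, then acid stimulation 30 min; HTRF cAMP detection, normalised, 4-parameter logistic IC50.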

[1] = 1321N1-hrGPR65 cells, cAMP HTRF, assay pH 7.2, read-out: hGPR65 IC50 (Activity of selected compounds according to the invention)

Sequence of human recombinant GPR65 (Q8IYL9 whole entry): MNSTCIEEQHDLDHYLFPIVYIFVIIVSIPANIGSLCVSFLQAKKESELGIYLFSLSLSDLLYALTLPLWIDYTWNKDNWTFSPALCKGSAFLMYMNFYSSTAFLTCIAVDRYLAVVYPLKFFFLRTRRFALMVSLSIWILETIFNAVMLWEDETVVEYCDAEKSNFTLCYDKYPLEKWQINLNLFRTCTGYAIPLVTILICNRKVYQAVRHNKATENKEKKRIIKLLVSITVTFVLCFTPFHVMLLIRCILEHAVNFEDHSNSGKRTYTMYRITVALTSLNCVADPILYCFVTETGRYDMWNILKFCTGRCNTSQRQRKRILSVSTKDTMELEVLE

Row | SMILES | IC50 [nM] | IC50 [1] [nM]
1 | O=C(Nc1cc(-c2ccccc2)on1)N1[C@H]2CC[C@@H]1c1n[nH]c(=O)cc1C2 [Compound 166, (6S,9R)-3-Oxo-N-(5-phenylisoxazol-3-yl)-3,5,6,7,8,9-hexahydro-2H-6,9-epiminocyclohepta[c]pyridazine-10-carboxamide] | < 500 | –
2 | O=C(Nc1cc(Cl)c(Cl)cc1F)N1[C@H]2CC[C@@H]1c1ccnc(OC(F)F)c1C2 [Compound 93, (5R,8S)-N-(4,5-dichloro-2-fluorophenyl)-1-(difluoromethoxy)-6,7,8,9-tetrahydro-5H-5,8-epiminocyclohepta[c]pyridine-10-carboxamide] | – | 500 to 5000
3 | O=C(Nc1cc(F)c(-c2ccc(F)nc2)cc1F)N1[C@H]2CC[C@@H]1c1n[nH]c(=O)cc1C2 [Compound 244, (6S,9R)-N-(2,5-Difluoro-4-(6-fluoropyridin-3-yl)phenyl)-3-oxo-3,5,6,7,8,9-hexahydro-2H-6,9-epiminocyclohepta[c]pyridazine-10-carboxamide] | < 500 | –
4 | O=C(Nc1cc(Cl)c(I)cc1F)N1[C@H]2CC[C@@H]1c1ccnc(F)c1C2 [Compound 77, (5R,8S)-N-(5-Chloro-2-fluoro-4-iodophenyl)-1-fluoro-6,7,8,9-tetrahydro-5H-5,8-epiminocyclohepta[c]pyridine-10-carboxamide] | < 500 | –
5 | O=C(Nc1cc(Cl)c(-c2cnn(CC3CC3)c2)cc1F)N1[C@H]2CC[C@@H]1c1n[nH]c(=O)cc1C2 [Compound 144, (6S,9R)-N-(5-Chloro-4-(1-(cyclopropylmethyl)-1H-pyrazol-4-yl)-2-fluorophenyl)-3-oxo-3,5,6,7,8,9-hexahydro-2H-6,9-epiminocyclohepta[c]pyridazine-10-carboxamide] | < 500 | –
6 | O=C(Nc1cc(Cl)c(-c2ccc3nsnc3c2)cc1F)N1[C@H]2CC[C@@H]1c1c[nH]c(=O)cc1C2 [Compound 176, (6S,9R)-N-(4-(benzo[c][1,2,5]thiadiazol-5-yl)-5-chloro-2-fluorophenyl)-3-oxo-3,5,6,7,8,9-hexahydro-2H-6,9-epiminocyclohepta[c]pyridine-10-carboxamide] | < 500 | –
7 | O=C(Nc1cc(Cl)c(-c2ccnc(OCC(F)(F)F)c2)cc1F)N1[C@H]2CC[C@@H]1c1n[nH]c(=O)cc1C2 [Compound 310, (6S,9R)-N-(5-Chloro-2-fluoro-4-(2-(2,2,2-trifluoroethoxy)pyridin-4-yl)phenyl)-3-oxo-3,5,6,7,8,9-hexahydro-2H-6,9-epiminocyclohepta[c]pyridazine-10-carboxamide] | < 500 | –
8 | O=C(Nc1cc(Br)c(C(F)(F)F)cc1F)N1C2CCC1c1n[nH]c(=O)cc1C2 (racemic) [Compound 6, (±)-N-(5-Bromo-2-fluoro-4-(trifluoromethyl)phenyl)-3-oxo-3,5,6,7,8,9-hexahydro-2H-6,9-epiminocyclohepta[c]pyridazine-10-carboxamide] | < 500 | –
9 | O=C(Nc1ccc(Cl)c(Cl)c1)N1C2CCC1c1n[nH]c(=O)cc1C2 (racemic) [Compound 75, (±)-N-(3,4-Dichlorophenyl)-3-oxo-3,5,6,7,8,9-hexahydro-2H-6,9-epiminocyclohepta[c]pyridazine-10-carboxamide] | < 500 | –
10 | CNCCCOc1cnc(F)c2c1[C@H]1CC[C@@H](C2)N1C(=O)Nc1cc(Cl)c(C(F)(F)F)cc1F [Compound 161, (5R,8S)—N-(5-Chloro-2-fluoro-4-(trifluoromethyl)phenyl)-1-fluoro-4-(3-(methylamino)propoxy)-6,7,8,9-tetrahydro-5H-5,8-epiminocyclohepta[c]pyridine-10-carboxamide] | – | 500 to 5000
11 | O=C(Nc1ccc(Br)c(C(F)(F)F)c1)N1[C@H]2CC[C@@H]1c1n[nH]c(=O)cc1C2 [Compound 47, (6S,9R)-N-(4-Bromo-3-(trifluoromethyl)phenyl)-3-oxo-3,5,6,7,8,9-hexahydro-2H-6,9-epiminocyclohepta[c]pyridazine-10-carboxamide] | < 500 | –
12 | N#Cc1cc(F)c(NC(=O)N2C3CCC2c2n[nH]c(=O)cc2C3)cc1Cl (racemic) [Compound 53, (±)-N-(5-Chloro-4-cyano-2-fluorophenyl)-3-oxo-3,5,6,7,8,9-hexahydro-2H-6,9-epiminocyclohepta[c]pyridazine-10-carboxamide] | – | 500 to 5000
13 | O=C(Nc1cc(Cl)c(-c2ccc(C(F)(F)F)nc2)cc1F)N1[C@H]2CC[C@@H]1c1c[nH]c(=O)cc1C2 [Compound 312, (6S,9R)-N-(5-Chloro-2-fluoro-4-(6-(trifluoromethyl)pyridin-3-yl)phenyl)-3-oxo-3,5,6,7,8,9-hexahydro-2H-6,9-epiminocyclohepta[c]pyridine-10-carboxamide] | < 500 | –
14 | O=C(Nc1cc(Cl)c(C(F)(F)F)cc1F)N1[C@H]2CC[C@@H]1C(F)(F)c1c2ccnc1F [Compound 228, (5S,8R)-N-(5-Chloro-2-fluoro-4-(trifluoromethyl)phenyl)-1,9,9-trifluoro-6,7,8,9-tetrahydro-5H-5,8-epiminocyclohepta[c]pyridine-10-carboxamide] | 500 to 5000 | –
15 | O=C(Nc1cc(Cl)c(Br)cc1F)N1[C@H]2CC[C@@H]1c1n[nH]c(=O)cc1C2 [Compound 32, (6S,9R)-N-(4-Bromo-5-chloro-2-fluorophenyl)-3-oxo-3,5,6,7,8,9-hexahydro-2H-6,9-epiminocyclohepta[c]pyridazine-10-carboxamide] | < 500 | –
16 | O=C(Nc1cc(Cl)c(Cl)cc1F)N1[C@H]2CC[C@@H]1c1c(C#CCO)cnc(F)c1C2 [Compound 107, (5R,8S)—N-(4,5-Dichloro-2-fluorophenyl)-1-fluoro-4-(3-hydroxyprop-1-yn-1-yl)-6,7,8,9-tetrahydro-5H-5,8-epiminocyclohepta[c]pyridine-10-carboxamide] | – | 500 to 5000
17 | CC(C)Oc1cc(-c2cc(F)c(NC(=O)N3[C@H]4CC[C@@H]3c3n[nH]c(=O)cc3C4)cc2Cl)ccn1 [Compound 218, (6S,9R)-N-(5-Chloro-2-fluoro-4-(2-isopropoxypyridin-4-yl)phenyl)-3-oxo-3,5,6,7,8,9-hexahydro-2H-6,9-epiminocyclohepta[c]pyridazine-10-carboxamide] | < 500 | –
18 | COc1cc(-c2cc(F)c(NC(=O)N3[C@H]4CC[C@@H]3c3n[nH]c(=O)cc3C4)cc2Cl)ccn1 [Compound 199, (6S,9R)-N-(5-Chloro-2-fluoro-4-(2-methoxypyridin-4-yl)phenyl)-3-oxo-3,5,6,7,8,9-hexahydro-2H-6,9-epiminocyclohepta[c]pyridazine-10-carboxamide] | < 500 | –
19 | O=C(Nc1cc(Cl)c(-c2ccc(OCC(F)(F)F)nc2)cc1F)N1[C@H]2CC[C@@H]1c1ccnc(F)c1C2 [Compound 240, (5R,8S)-N-(5-Chloro-2-fluoro-4-(6-(2,2,2-trifluoroethoxy)pyridin-3-yl)phenyl)-1-fluoro-6,7,8,9-tetrahydro-5H-5,8-epiminocyclohepta[c]pyridine-10-carboxamide] | < 500 | –
20 | CN(C)CCOc1ccc(-c2cc(F)c(NC(=O)N3[C@H]4CC[C@@H]3c3ccnc(F)c3C4)cc2Cl)cn1 [Compound 301, (5R,8S)-N-(5-Chloro-4-(6-(2-(dimethylamino)ethoxy)pyridin-3-yl)-2-fluorophenyl)-1-fluoro-6,7,8,9-tetrahydro-5H-5,8-epiminocyclohepta[c]pyridine-10-carboxamide] | < 500 | –
21 | O=C(Nc1cc(Cl)c(C(F)(F)F)cc1F)N1[C@@H]2CC[C@H]1C(F)(F)c1c2ccnc1F [Compound 227, (5R,8S)-N-(5-Chloro-2-fluoro-4-(trifluoromethyl)phenyl)-1,9,9-trifluoro-6,7,8,9-tetrahydro-5H-5,8-epiminocyclohepta[c]pyridine-10-carboxamide] | < 500 | –
22 | O=C(Nc1cc(Cl)c(-c2cncc(F)c2)cc1F)N1[C@H]2CC[C@@H]1c1c[nH]c(=O)cc1C2 [Compound 201, (6S,9R)-N-(5-Chloro-2-fluoro-4-(5-fluoropyridin-3-yl)phenyl)-3-oxo-3,5,6,7,8,9-hexahydro-2H-6,9-epiminocyclohepta[c]pyridine-10-carboxamide] | < 500 | –
23 | O=C(Nc1cc(Cl)c(F)cc1Oc1ccc2nonc2c1)N1[C@H]2CC[C@@H]1c1n[nH]c(=O)cc1C2 [Compound 224, (6S,9R)-N-(2-(Benzo[c][1,2,5]oxadiazol-5-yloxy)-5-chloro-4-fluorophenyl)-3-oxo-3,5,6,7,8,9-hexahydro-2H-6,9-epiminocyclohepta[c]pyridazine-10-carboxamide] | 500 to 5000 | –
